Earlier results, collected in patent publication US7232821B2, “(2-((2-alkoxy)-phenyl) -cyclopent-1enyl) aromatic carbo and heterocyclic acid and derivatives” (Glaxo Group Limited, priority 2002, dated 2007).

Experiments:
[1] = tested on: rat model of chronic constriction injury
[2] = tested on: rodent model of post-operative pain

For `Cc1cc(Cl)ccc1S(=O)(=O)NC[C@H]1C2CCC(CC2)[C@@H]1/C=C\CCCC(=O)O` [ONO-8711], the hyperalgesia and allodynia [1] is listed as “reduces hyperalgesia and allodynia” and the mechanical hyperalgesia [2] is listed as “inhibits mechanical hyperalgesia”.
